Laboratory results: ChEMBL document CHEMBL1147010, “Aziridine-2,3-dicarboxylate inhibitors targeting the major cysteine protease of Trypanosoma brucei as lead trypanocidal agents” (Bioorg Med Chem Lett, 2006)
Activity calls are given as the source filed them. The calls are words filed in the database; no cut-off is given here.

Legend:
J774 [1] = assay: Cytotoxicity against J774.1 cell line after 72 hrs; format: functional, cell-based; settings: Mus musculus, J774, 72 h
[2] = target: Rhodesain (Trypanosoma brucei rhodesiense) (UniProt Q95PM0); assay: Inhibition of Trypanosoma brucei rhodesiense rhodesain at 140 uM
Chain of Rhodesain (Trypanosoma brucei rhodesiense) (Q95PM0 1-450): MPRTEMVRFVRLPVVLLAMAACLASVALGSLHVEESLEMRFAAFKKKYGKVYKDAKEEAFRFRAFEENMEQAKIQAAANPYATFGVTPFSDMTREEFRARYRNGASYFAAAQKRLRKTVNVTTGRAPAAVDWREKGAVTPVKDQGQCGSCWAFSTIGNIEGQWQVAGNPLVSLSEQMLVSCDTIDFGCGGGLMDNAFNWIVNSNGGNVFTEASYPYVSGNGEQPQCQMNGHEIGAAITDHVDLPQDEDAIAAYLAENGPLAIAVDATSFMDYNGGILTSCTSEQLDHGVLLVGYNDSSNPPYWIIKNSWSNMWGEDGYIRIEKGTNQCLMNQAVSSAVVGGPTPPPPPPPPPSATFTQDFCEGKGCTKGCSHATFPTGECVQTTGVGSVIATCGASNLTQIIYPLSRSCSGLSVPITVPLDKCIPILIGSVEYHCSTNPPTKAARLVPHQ

[3] = system: Trypanosoma brucei brucei; assay: Trypanocidal activity against Trypanosoma brucei brucei after 48 hrs; format: functional, organism-based
J774 [4] = assay: Selectivity index, IC50 for J774.1/IC50 for Trypanosoma brucei brucei; format: functional
J774 [5] = assay: Cytotoxicity against J774.1 cell line after 48 hrs; format: functional, cell-based; settings: Mus musculus, J774, 48 h
Rhodesain [6] = target: T1, Rhodesain (Trypanosoma brucei rhodesiense, UniProt Q95PM0); assay: Inhibition of Trypanosoma brucei rhodesiense rhodesain
T1 sequence (Q95PM0 whole entry): as the sequence (Q95PM0 1-450) above

Rhodesain [7] = target: T1, Rhodesain; assay: Inhibition of Trypanosoma brucei rhodesiense rhodesain in presence of 31.6 uM substrate Cbz-Phe-Arg-AMC
[8] = target: Rhodesain (Trypanosoma brucei rhodesiense) (UniProt Q95PM0); assay: Inhibition of Trypanosoma brucei rhodesiense rhodesain at 200 uM

inhibition [2] | SMILES | IC50 (J774 [1]) | IC50 [3] | Ratio IC50 (J774 [4]) | IC50 (J774 [5]) | Ki (Rhodesain [6]) | Ki (Rhodesain [7]) | inhibition [8]
inactive | C[C@H](NC(=O)[C@@H](Cc1ccccc1)NC(=O)OC(C)(C)C)C(=O)N1[C@H](C(=O)OCc2ccccc2)[C@H]1C(=O)OCc1ccccc1 | 43.7 µM | 34.3 µM | 1.3 | – | – | – | –
– | CCOC(=O)[C@@H]1[C@@H](C(=O)OCC)N1C(=O)[C@@H]1CN1C(=O)[C@H](CC(C)C)NC(=O)OC(C)(C)C | – | 25.7 µM | 1.9 | 50 µM | 0.3 µM | 0.36 µM | –
– | Nc1nc(N)nc(Nc2ccc([As]3SCC(CO)S3)cc2)n1 (stereo not drawn) [MELARSOPROL] | – | 0.0026 µM | 1653 | 4.3 µM | – | – | 94.3%
